# From patent publication US20090269354A1, “QUINAZOLINE DERIVATIVES AND METHODS OF TREATMENT” (Concert Pharmaceuticals, Inc., priority 2008, published 2009)
# Columns and labels:
# [1] = Compound stability in human liver microsomes (Example 16, design as Example 15); type: in vitro ADME; conditions: 1 μM test compound; for half-life at 1 μM: pooled human liver microsomes, pH 7.4, human liver microsomes 0.5 mg/mL; for % Difference with respect to non-deuterated analog: t1/2 vs 105-H or 106-H; for % Difference with respect to non-deuterated analog / % Difference with respect to non-deuterated Erlotinib: 0.5 mg/mL HLM; for % Difference with respect to non-deuterated Erlotinib: t1/2 vs erlotinib
# Protocol: The metabolic stability of compounds of the invention was tested using pooled liver microsomal incubations. Samples of the test compounds, exposed to pooled human liver microsomes, were analyzed using HPLC-MS (or MS/MS) detection. For determining metabolic stability, multiple reaction monitoring (MRM) was used to measure the disappearance of the test compounds.
# Experimental Procedures. Human liver microsomes (“HLM”; 20 mg/mL) were obtained from Xenotech, LLC (Lenexa, Kans.). β-nicotinamide adenine dinucleotide phosphate, reduced form (NADPH), magnesium chloride (MgCl2), and dimethyl sulfoxide (DMSO) were purchased from Sigma-Aldrich.
# Stock solutions of test compounds (7.5 mM) were prepared in DMSO. The 7.5 mM stock solutions were diluted to 50 μM in acetonitrile (ACN). The 20 mg/mL human liver microsomes were diluted to 0.625 mg/mL in 0.1 M potassium phosphate buffer, pH 7.4, containing 3 mM MgCl2. The diluted microsomes (375 μL) were added to wells of a 96-well deep-well polypropylene plate in triplicate. A 10 μL aliquot of the 50 μM test compound solution was added to the microsomes and the mixture was pre-warmed for 10 minutes. Reactions were initiated by addition of 125 μL of pre-warmed NADPH solution (8 mM NADPH in 0.1M potassium phosphate buffer, pH 7.4, containing 3 mM MgCl2). The final reaction volume was 0.5 mL and contained 0.5 mg/mL human liver microsomes, 1 μM test compound, and 2 mM NADPH in 0.1 M potassium phosphate buffer, pH 7.4, and 3 mM MgCl2. The reaction mixtures were incubated at 37° C., and 50 μL aliquots were removed at 0, 5, 10, 20, and 30 minutes and added to shallow-well 96-well plates which contained 50 μL of ice-cold ACN with internal standard to stop the reactions. The plates were stored at 4° C. for 20 minutes after which 100 μL of water was added to the wells of the plate before centrifugation to pellet precipitated proteins. Supernatants were transferred to another 96-well plate and analyzed for amounts of parent remaining by LC-MS/MS using an Applied Bio-systems API 4000 mass spectrometer. 7-ethoxycoumarin was used as a positive control.
# The in vitro t1/2 s for test compounds were calculated from the slopes of the linear regression of % parent remaining (ln) vs incubation time relationship.
# in vitro t1/2=0.693/k, where k=−[slope of linear regression of % parent remaining(ln) vs incubation time]. Data analysis was performed using Microsoft Excel Software.
# Evaluation of Compound Stability in Human Liver Microsomes.
# [2] = Compound stability in human liver microsomes (Example 15); type: in vitro ADME; conditions: 1 μM test compound; for half-life at 1 μM: pH 7.4, pooled human liver microsomes 0.5 mg/mL, 2 mM NADPH, 37° C., 0-30 min; for % Difference (t1/2 compared to erlotinib): [(deuterated species) − (nondeuterated species)](100)/(nondeuterated species), reference erlotinib, 0.5 mg/mL HLM
# Protocol: Evaluation of Compound Stability in Human Liver Microsomes. […] The metabolic stability of compounds of the invention was tested using pooled liver microsomal incubations. Samples of the test compounds, exposed to pooled human liver microsomes, were analyzed using HPLC-MS (or MS/MS) detection. For determining metabolic stability, multiple reaction monitoring (MRM) was used to measure the disappearance of the test compounds. Experimental Procedures. Human liver microsomes (“HLM”; 20 mg/mL) were obtained from Xenotech, LLC (Lenexa, Kans.). β-nicotinamide adenine dinucleotide phosphate, reduced form (NADPH), magnesium chloride (MgCl2), and dimethyl sulfoxide (DMSO) were purchased from Sigma-Aldrich. Stock solutions of test compounds (7.5 mM) were prepared in DMSO. The 7.5 mM stock solutions were diluted to 50 μM in acetonitrile (ACN). The 20 mg/mL human liver microsomes were diluted to 0.625 mg/mL in 0.1 M potassium phosphate buffer, pH 7.4, containing 3 mM MgCl2. The diluted microsomes (375 μL) were added to wells of a 96-well deep-well polypropylene plate in triplicate. A 10 μL aliquot of the 50 μM test compound solution was added to the microsomes and the mixture was pre-warmed for 10 minutes. Reactions were initiated by addition of 125 μL of pre-warmed NADPH solution (8 mM NADPH in 0.1M potassium phosphate buffer, pH 7.4, containing 3 mM MgCl2). The final reaction volume was 0.5 mL and contained 0.5 mg/mL human liver microsomes, 1 μM test compound, and 2 mM NADPH in 0.1 M potassium phosphate buffer, pH 7.4, and 3 mM MgCl2. The reaction mixtures were incubated at 37° C., and 50 μL aliquots were removed at 0, 5, 10, 20, and 30 minutes and added to shallow-well 96-well plates which contained 50 μL of ice-cold ACN with internal standard to stop the reactions. The plates were stored at 4° C. for 20 minutes after which 100 μL of water was added to the wells of the plate before centrifugation to pellet precipitated proteins. Supernatants were transferred to another 96-well plate and analyzed for amounts of parent remaining by LC-MS/MS using an Applied Bio-systems API 4000 mass spectrometer. 7-ethoxycoumarin was used as a positive control. The in vitro t1/2 s for test compounds were calculated from the slopes of the linear regression of % parent remaining (ln) vs incubation time relationship. […] Data analysis was performed using Microsoft Excel Software.
half-life at 1 μM [1],% Difference with respect to non-deuterated analog [1],% Difference with respect to non-deuterated Erlotinib [1],half-life at 1 μM [2],% Difference (t1/2 compared to erlotinib) [2],Structure (SMILES)
1.18 h,35%,19%,–,–,"[2H]C([2H])([2H])OC([2H])([2H])COc1cc2ncnc(Nc3cccc(Br)c3)c2cc1OCC([2H])([2H])OC([2H])([2H])[2H] [Compound 105, N-(3-Bromophenyl)-6,7-bis(2-(methoxy-d3)-2,2-d2-ethoxy)quinazolin-4-amine]"
1.54 h,22%,55%,–,–,"[2H]C([2H])([2H])OC([2H])([2H])COc1cc2ncnc(Nc3cccc(Cl)c3)c2cc1OCC([2H])([2H])OC([2H])([2H])[2H] [Compound 106, N-(3-Chlorophenyl)-6,7-bis(2-(methoxy-d3)-2,2-d2-ethoxy)quinazolin-4-amine]"
–,–,–,1.14 h,–,"[2H]C([2H])([2H])OC([2H])([2H])C([2H])([2H])Oc1cc2ncnc(Nc3cccc(C#C)c3)c2cc1OC([2H])([2H])C([2H])([2H])OC([2H])([2H])[2H] [Compound 120, N-(3-Ethynylphenyl)-6,7-bis(2-(methoxy-d3)ethoxy-d4)quinazolin-4-amine]"
–,–,–,0.847 h,−12%,"[2H]C([2H])([2H])OC([2H])([2H])C([2H])([2H])Oc1cc2ncnc(Nc3ccc(F)c(C#C)c3)c2cc1OC([2H])([2H])C([2H])([2H])OC([2H])([2H])[2H] [Compound 121, N-(3-Ethynyl-4-fluorophenyl)-6,7-bis(2-(methoxy-d3)ethoxy-d4)quinazolin-4-amine]"
–,–,–,0.785 h,−19%,"[2H]C([2H])([2H])OC([2H])([2H])COc1cc2ncnc(Nc3ccc(F)c(C#C)c3)c2cc1OCC([2H])([2H])OC([2H])([2H])[2H] [Compound 135, N-(3-Ethynyl-4-fluorophenyl)-6,7-bis(2-(methoxy-d3)-2,2-d2-ethoxy)quinazolin-4-amine]"
–,–,–,1.48 h,–,"[2H]C([2H])([2H])OC([2H])([2H])COc1cc2ncnc(Nc3ccc(O)c(C#C)c3)c2cc1OCC([2H])([2H])OC([2H])([2H])[2H] [Compound 138, 4-(6,7-Bis(2-(methoxy-d3)-2,2-d2-ethoxy)quinazolin-4-ylamino)-2-ethynylphenol]"
0.997 h,–,–,0.963 h,–,"C#Cc1cccc(Nc2ncnc3cc(OCCOC)c(OCCOC)cc23)c1 [Erlotinib, [6,7-Bis-(2-methoxy-ethoxy)-quinazolin-4-yl]-(3-ethynyl-phenyl)-amine, reference compound]"
